This note sets out measurements from US8586755B2, “Substituted nicotinamides as KCNQ2/3 modulators” (Grünenthal GmbH, priority 2009, dated 2013).

The test addresses T1, KCNQ2/3 channels (Homo sapiens, UniProt O43525+O43526).
T1 construct: expressed in transfected cells
The test is described as follows: Fluorescence assay using a voltage sensitive dye (fluorimetry). The format is cell-based. The note with it: CHO-K1 cells expressing KCNQ2/3 channels; for EC50: agonistic activity; for Fluorimetry % efficacy (retigabine 50 μM = 100%) / Emax: retigabine 50 μM = 100%; for Emax: read-out: Fluorimetry % efficacy (retigabine 50 μM = 100%). The method, then: Pharmacological Experiments Fluorescence Assay Using a Voltage Sensitive Dye
Human CHO-K1 cells expressing KCNQ2/3 channels are cultivated adherently at 37° C., 5% CO2 and 95% humidity in cell culture bottles (e.g. 80 cm^2 TC flasks, Nunc) with DMEM-high glucose (Sigma Aldrich, D7777) including 10% FCS (PAN Biotech, e.g. 3302-P270521) or alternatively MEM Alpha Medium (1×, liquid, Invitrogen, #22571), 10% fetal calf serum (FCS) (Invitrogen, #10270-106, heat-inactivated) and the necessary selection antibiotics.
Before being sown out for the measurements, the cells are washed with a 1×DPBS buffer without Ca^2+/Mg^2+ (e.g. Invitrogen, #14190-094) and detached from the bottom of the culture vessel by means of Accutase (PAA Laboratories, #L11-007) (incubation with Accutase for 15 min at 37° C.). The cell count then present is determined using a CASY™ cell counter (TCC model, Schärfe System) in order subsequently to apply, depending on the density optimization for the individual cell line, 20,000-30,000 cells/well/100 μl of the described nutrient medium to 96-well measuring plates of the Corning™ CellBIND™ type (Flat Clear Bottom Black Polystyrene Microplates, #3340). Incubation is then carried out for one hour at room temperature, without gassing or adjusting the humidity, followed by incubation for 24 hours at 37° C., 5% CO2 and 95% humidity.
The voltage-sensitive fluorescent dye from the Membrane Potential Assay Kit (Red™ Bulk format part R8123 for FLIPR, MDS Analytical Technologies™) is prepared by dissolving the contents of a vessel Membrane Potential Assay Kit Red Component A in 200 ml of extracellular buffer (ES buffer, 120 mM NaCl, 1 mM KCl, 10 mM HEPES, 2 mM CaCl2, 2 mM MgCl2, 10 mM glucose; pH 7.4). After removal of the nutrient medium, the cells are washed with 200 μl of ES buffer, then covered with a layer of 100 μl of the dye solution prepared above and incubated for 45 min at room temperature with the exclusion of light.
The fluorescence measurements are carried out with a BMG Labtech FLUOstar™ BMG Labtech NOVOstar™ or BMG Labtech POLARstar™ instrument (525 nm excitation, 560 nm emission, Bottom Read mode). After incubation of the dye, 50 μl of the test substances in the desired concentrations, or 50 μl of ES buffer for control purposes, are introduced into separate cavities of the measuring plate and incubated for 30 min at room temperature while being shielded from light. The fluorescence intensity of the dye is then measured for 5 min and the fluorescence value F1 of each well is thus determined at a given, constant time. 15 μl of a […] KCl solution ([…]) are then added to each well. The change in fluorescence is subsequently measured until all the relevant measured values have been obtained (mainly 5-30 min). At a given time after KCl application, a fluorescence value F2 is determined, in this case at the time of the fluorescence peak.
For calculation, the fluorescence intensity F2 is compared with the fluorescence intensity F1, and the agonistic activity of the target compound on the potassium channel is determined therefrom. F2 and F1 are calculated as follows: […]
In order to determine whether a substance has agonistic activity,
A substance has an agonistic activity on the potassium channel when
[formula] it is possible to conclude that a target compound has agonistic activity if an increase in
[formula] is to be observed as the dosage of the target compound increases.
Calculations of EC50 values are carried out with the aid of ‘Prism v4.0’ software (GraphPad Software™).

By EC50 is commonly meant the midpoint of the concentration-response curve. Turning to `O=C(NCc1cccs1)c1cccnc1SCCCc1ccccc1` [compound 1], the EC50 was determined as 170 nM and the “Fluorimetry % efficacy (retigabine 50 μM = 100%)” value (“Fluorimetry % efficacy” below) was determined as 132%.

Regarding `O=C(NCc1cccs1)c1cccnc1SCCCC1CCCCC1` [compound 2, 2-(3-Cyclohexyl-propylsulfanyl)-N-(thiophen-2-yl-methyl)-pyridine-3-carboxylic acid amide], the EC50 was determined as 1350 nM and the Emax was found to be 97%.

Take `O=C(CCSc1ncccc1C(=O)NCc1cccs1)c1ccccc1` [compound 3]: the “Fluorimetry % efficacy” value came to 53%.

On to `O=C(NCc1cccs1)c1cccnc1SCCOc1cccc(C(F)(F)F)c1` [compound 4, N-(Thiophen-2-yl-methyl)-2-[2-[3-(trifluoromethyl)-phenoxy]-ethylsulfanyl]-pyridine-3-carboxylic acid amide], for which it took 772 nM to reach a half-maximal effect (EC50) and the Emax was found to be 126%.

For `CC(C)CCCSc1ncccc1C(=O)NCc1cccs1` [compound 5, 2-(4-Methyl-pentylsulfanyl)-N-(thiophen-2-yl-methyl)-pyridine-3-carboxylic acid amide], the EC50 is 435 nM and the Emax was determined as 161%.

In the case of `O=C(NCc1cccs1)c1cccnc1CCCCc1ccccc1` [compound 7, 2-(4-Phenyl-butyl)-N-(thiophen-2-yl-methyl)-pyridine-3-carboxylic acid amide], the Emax is 91%.

Take `O=C(NCC1CCCCC1)c1cccnc1CCCS(=O)(=O)c1ccccc1` [compound 8, 2-[3-(Benzenesulfonyl)-propyl]-N-(cyclohexyl-methyl)-pyridine-3-carboxylic acid amide]: the Emax stood at 37%.

`O=C(NCC1CCCCC1)c1cccnc1CCCCc1ccccc1` [compound 9, N-(Cyclohexyl-methyl)-2-(4-phenyl-butyl)-pyridine-3-carboxylic acid amide]: the EC50 was 1350 nM and the Emax turned out to be 157%.

For the compound `O=C(NCc1cccs1)c1cccnc1CCCS(=O)(=O)c1ccccc1` [compound 10, 2-[3-(Benzenesulfonyl)-propyl]-N-(thiophen-2-yl-methyl)-pyridine-3-carboxylic acid amide], the Emax is 13%.

As for `O=C(NCc1cccs1)c1cccnc1CCCS(=O)(=O)c1cccc(C(F)(F)F)c1` [compound 12, N-(Thiophen-2-yl-methyl)-2-[3-[[3-(trifluoromethyl)phenyl]sulfonyl]-propyl]-pyridine-3-carboxylic acid amide], a half-maximal effect (EC50) was put at 2920 nM and the Emax was 170%.

In the case of `O=C(NCc1cccs1)c1cccnc1CCCSc1cccc(C(F)(F)F)c1` [compound 13], the EC50 came out at 302 nM and the “Fluorimetry % efficacy” value stood at 200%.

On to `CC(CSc1ncccc1C(=O)NCc1cccs1)Sc1ccccc1` (stereo not shown) [compound 16], for which the EC50 turned out to be 74 nM and the Emax worked out at 176%.

Consider `O=C(NCc1cccs1)c1cccnc1SCCCc1ccc(F)cc1` [compound 17], for which the EC50 is 128 nM and the “Fluorimetry % efficacy” value was found to be 176%.

Consider `O=C(NCc1cccs1)c1cccnc1SCCCc1cccc(C(F)(F)F)c1` [compound 18, N-(Thiophen-2-yl-methyl)-2-[3-[3-(trifluoromethyl)phenyl]-propylsulfanyl]-pyridine-3-carboxylic acid amide], for which the EC50 was found to be 111 nM and the Emax came out at 160%.

With `CC(CSc1ncccc1C(=O)NCc1cccs1)Sc1ccc(F)cc1` (stereo not shown) [compound 19, 2-[2-[(4-Fluorophenyl)sulfanyl]-propylsulfanyl]-N-(thiophen-2-yl-methyl)-pyridine-3-carboxylic acid amide], the EC50 is 37 nM and the Emax was determined as 171%.

As for `CC(CSc1ncccc1C(=O)NCc1cccs1)Sc1cccc(C(F)(F)F)c1` (stereo not shown) [compound 20, N-(Thiophen-2-yl-methyl)-2-[2-[[3-(trifluoromethyl)phenyl]sulfanyl]-propylsulfanyl]-pyridine-3-carboxylic acid amide], the EC50 worked out at 49 nM and the Emax was determined as 174%.

`O=C(NCc1cccs1)c1cccnc1CCCCc1cccc(C(F)(F)F)c1` [compound 21]: the response was half-maximal at 364 nM (EC50) and the “Fluorimetry % efficacy” value turned out to be 126%.

On to `O=C(NCc1cccs1)c1cccnc1CCCCc1ccc(F)cc1` [compound 22, 2-[4-(4-Fluorophenyl)-butyl]-N-(thiophen-2-yl-methyl)-pyridine-3-carboxylic acid amide], for which the midpoint of the response, the EC50, lay at 2350 nM and the Emax was 150%.

Take `O=C(NCc1cccs1)c1cccnc1CCCSc1ccccc1` [compound 23, 2-(3-Phenylsulfanyl-propyl)-N-(thiophen-2-yl-methyl)-pyridine-3-carboxylic acid amide]: the EC50 worked out at 3770 nM and the Emax turned out to be 163%.

With `CC(CSc1ccccc1)Sc1ncccc1C(=O)NCc1cccs1` (stereo not shown) [compound 24, 2-[(1-Methyl-2-phenylsulfanyl-ethyl)sulfanyl]-N-(thiophen-2-yl-methyl)-pyridine-3-carboxylic acid amide], the EC50 is 11 nM and the Emax stood at 122%.

Consider `O=C(NCC1CCCCCC1)c1cccnc1CCCCc1cccc(C(F)(F)F)c1` [compound 25, N-(Cycloheptyl-methyl)-2-[4-[3-(trifluoromethyl)phenyl]-butyl]-pyridine-3-carboxylic acid amide], for which it took 1020 nM to reach a half-maximal effect (EC50) and the Emax worked out at 216%.

For `O=C(NCC1CC2CCC1C2)c1cccnc1CCCCc1cccc(C(F)(F)F)c1` (stereo not shown) [compound 26, N-(5-Bicyclo[2.2.1]heptanyl-methyl)-2-[4-[3-(trifluoromethyl)phenyl]-butyl]-pyridine-3-carboxylic acid amide], the midpoint of the response, the EC50, lay at 126 nM and the Emax amounted to 244%.

Regarding `CC(C)CCCSc1ncccc1C(=O)NCC1CC2CCC1C2` (stereo not shown) [compound 28, N-(5-Bicyclo[2.2.1]heptanyl-methyl)-2-(4-methyl-pentylsulfanyl)-pyridine-3-carboxylic acid amide], the EC50 was determined as 1570 nM and the Emax came to 192%.

As for `O=C(NCC1CCCCCC1)c1cccnc1CCCSc1ccc(F)cc1` [compound 29, N-(Cycloheptyl-methyl)-2-[3-[(4-fluorophenyl)sulfanyl]-propyl]-pyridine-3-carboxylic acid amide], the EC50 turned out to be 275 nM and the Emax is 159%.

Consider `O=C(NCC1CC2CCC1C2)c1cccnc1CCCSc1ccc(F)cc1` (stereo not shown) [compound 30, N-(5-Bicyclo[2.2.1]heptanyl-methyl)-2-[3-[(4-fluorophenyl)sulfanyl]-propyl]-pyridine-3-carboxylic acid amide], for which it took 630 nM to reach a half-maximal effect (EC50) and the Emax came to 261%.

For the compound `O=C(NCC1CCCCCC1)c1cccnc1CCCS(=O)(=O)c1cccc(C(F)(F)F)c1` [compound 31, N-(Cycloheptyl-methyl)-2-[3-[[3-(trifluoromethyl)phenyl]sulfonyl]-propyl]-pyridine-3-carboxylic acid amide], the response was half-maximal at 437 nM (EC50) and the Emax was determined as 98%.

As to `O=C(NCC1CC2CCC1C2)c1cccnc1CCCS(=O)(=O)c1cccc(C(F)(F)F)c1` (stereo not shown) [compound 32, N-(5-Bicyclo[2.2.1]heptanyl-methyl)-2-[3-[[3-(trifluoromethyl)phenyl]sulfonyl]-propyl]-pyridine-3-carboxylic acid amide], the EC50 came to 3130 nM and the Emax worked out at 191%.

As to `O=C(NCC1CC2CCC1C2)c1cccnc1SCCCc1ccccc1` (stereo not shown) [compound 33, N-(5-Bicyclo[2.2.1]heptanyl-methyl)-2-(3-phenyl-propylsulfanyl)-pyridine-3-carboxylic acid amide], the response was half-maximal at 451 nM (EC50) and the Emax came to 242%.
